Laboratory results taken from ChEMBL document CHEMBL1127634, “Calculation of relative differences in the binding free energies of HIV1 protease inhibitors: a thermodynamic cycle perturbation approach” (J Med Chem, 1994).

molecular target: Human immunodeficiency virus type 1 protease (Human immunodeficiency virus 1, UniProt Q72874); assay: Binding affinity against HIV -1 protease

Row | SMILES | Ki
1 | C[C@H](N)C(=O)N[C@@H](C)C(=O)N[C@@H](Cc1ccccc1)[C@@H](O)CCC(=O)NC(c1ccccc1)c1cc2ccccc2[nH]1 (stereo not given in full) | 43 nM
2 | C[C@H](N)C(=O)N[C@@H](C)C(=O)N[C@@H](Cc1ccccc1)[C@@H](O)CCC(=O)NC(c1ccccc1)c1nc2ccccc2[nH]1 (stereo not given in full) | 5370 nM
3 | O=C(CC[C@H](O)[C@H](Cc1ccccc1)NC(=O)CC(NC(=O)c1ccc2ccccc2n1)C(=O)O)NC(c1cccc(C(F)(F)F)c1)c1cc2ccccc2[nH]1 (stereo not given in full) | 33 nM
4 | Cc1cccc(C(NC(=O)CC[C@H](O)[C@H](Cc2ccccc2)NC(=O)CC(NC(=O)c2ccc3ccccc3n2)C(=O)O)c2cc3ccccc3[nH]2)c1 (stereo not given in full) | 39 nM
5 | O=C(CC[C@H](O)[C@H](Cc1ccccc1)NC(=O)CC(NC(=O)c1ccc2ccccc2n1)C(=O)O)NC(c1ccccc1)c1cc2ccccc2[nH]1 (stereo not given in full) | 200 nM
